According to ChEMBL document CHEMBL1201861, “Genomics of Drug Sensitity in Cancer screening data, Wellcome Trust Sanger Institute”:

How the values were obtained:
Experiment in all cases: cells
Type in all cases: functional, cell-based
Conditions in all cases: Homo sapiens
Ca9-22 = test system: Ca9-22;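 further: growth inhibition of Ca9-22 cells, read out with a cell viability assay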
Description: SANGER: Inhibition of human Ca9-22 cell growth in a cell viability assay.

DBTRG-05MG = test system: DBTRG-05MG;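 further: cell viability assay measuring growth inhibition of human DBTRG-05MG cells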
Description: SANGER: Inhibition of human DBTRG-05MG cell growth in a cell viability assay.

DMS-273 = test system: DMS-273
Description: SANGER: Inhibition of human DMS-273 cell growth in a cell viability assay.

DoTc2-4510 = test system: DoTc2-4510
EGI-1 = test system: EGI-1;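 further: cell viability readout used to gauge growth inhibition of EGI-1 cells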
Description: SANGER: Inhibition of human EGI-1 cell growth in a cell viability assay.

ESS-1 = test system: ESS-1;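 further: growth inhibition of human ESS-1 cells, read out by a cell viability assay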
Description: SANGER: Inhibition of human ESS-1 cell growth in a cell viability assay.

HCC1569 = test system: HCC1569;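 further: growth inhibition of human HCC1569 cells, read out with a cell viability assay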
Description: SANGER: Inhibition of human HCC1569 cell growth in a cell viability assay.

HCC 2998 = test system: HCC 2998;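 further: growth inhibition of human HCC2998 cells, measured with a cell viability read-out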
Description: SANGER: Inhibition of human HCC2998 cell growth in a cell viability assay.

HCC38 = test system: HCC38;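 further: cell viability assay on the human HCC38 cell line, with IC50 marking the concentration that inhibits cell growth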
Description: SANGER: Inhibition of human HCC38 cell growth in a cell viability assay.

HLE = test system: HLE;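 further: growth inhibition of human HLE cells, read out by a cell viability assay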
Description: SANGER: Inhibition of human HLE cell growth in a cell viability assay.

HMV-2 cell line = test system: HMV-2 cell line;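 further: growth inhibition of HMV-II cells, read out with a cell viability assay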
Description: SANGER: Inhibition of human HMV-II cell growth in a cell viability assay.

HSC-2 = test system: HSC-2;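 further: growth inhibition of human HSC-2 cells, read out by a cell viability assay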
Description: SANGER: Inhibition of human HSC-2 cell growth in a cell viability assay.

HSC-4 = test system: HSC-4;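 further: growth inhibition of human HSC-4 cells, read out with a cell viability assay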
Description: SANGER: Inhibition of human HSC-4 cell growth in a cell viability assay.

Hs-578T = test system: Hs-578T
Description: SANGER: Inhibition of human Hs-578-T cell growth in a cell viability assay.

HuO9 = test system: HuO9;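 further: growth inhibition of HuO9 cells, read out with a cell viability assay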
Description: SANGER: Inhibition of human HuO9 cell growth in a cell viability assay.

MC-IXC = test system: MC-IXC;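 further: growth inhibition of MC-IXC cells, read out with a cell viability assay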
Description: SANGER: Inhibition of human MC-IXC cell growth in a cell viability assay.

NB14 = test system: NB14;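 further: growth inhibition of NB14 cells measured with a cell viability assay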
Description: SANGER: Inhibition of human NB14 cell growth in a cell viability assay.

NCI-H1703 = test system: NCI-H1703;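 further: growth inhibition of NCI-H1703 cells, read out via a cell viability assay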
Description: SANGER: Inhibition of human NCI-H1703 cell growth in a cell viability assay.

NCI-H2228 = test system: NCI-H2228;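 further: growth inhibition of human NCI-H2228 cells, read out by a cell viability assay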
Description: SANGER: Inhibition of human NCI-H2228 cell growth in a cell viability assay.

NCI-H2347 = test system: NCI-H2347;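 further: growth inhibition of the cell line, read out with a cell viability assay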
Description: SANGER: Inhibition of human NCI-H2347 cell growth in a cell viability assay.

NCI-H2405 = test system: NCI-H2405;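 further: growth inhibition of the human cell line, read out with a cell viability assay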
Description: SANGER: Inhibition of human NCI-H2405 cell growth in a cell viability assay.

NCI-H28 = test system: NCI-H28;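 further: growth inhibition of human NCI-H28 cells, read out as cell viability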
Description: SANGER: Inhibition of human NCI-H28 cell growth in a cell viability assay.

NCI-H650 = test system: NCI-H650;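 further: growth inhibition of NCI-H650 cells, read out by a viability assay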
Description: SANGER: Inhibition of human NCI-H650 cell growth in a cell viability assay.

PFSK-1 = test system: PFSK-1;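 further: cell viability assay measuring how strongly compounds suppress growth of human PFSK-1 cells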
Description: SANGER: Inhibition of human PFSK-1 cell growth in a cell viability assay.

SCC-25 = test system: SCC-25;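 further: growth inhibition of SCC-25 cells, measured with a cell viability assay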
Description: SANGER: Inhibition of human SCC-25 cell growth in a cell viability assay.

SJRH30 = test system: SJRH30;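 further: growth inhibition of human SJRH30 cells, read out with a cell viability assay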
Description: SANGER: Inhibition of human SJRH30 cell growth in a cell viability assay.

SK-MEL-30 = test system: SK-MEL-30;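 further: growth inhibition of SK-MEL-30 cells, determined with a cell viability assay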
Description: SANGER: Inhibition of human SK-MEL-30 cell growth in a cell viability assay.

SW1990 = test system: SW1990;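 further: cell growth inhibition determined with a viability assay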
Description: SANGER: Inhibition of human SW1990 cell growth in a cell viability assay.

SW48 = test system: SW48;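 further: growth inhibition of SW48 cells, read out with a cell viability assay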
Description: SANGER: Inhibition of human SW48 cell growth in a cell viability assay.

SiHa = test system: SiHa;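 further: Viability-based readout of growth inhibition in SiHa cells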
Description: SANGER: Inhibition of human SiHa cell growth in a cell viability assay.

786-0 = test system: 786-0
Description: SANGER: Inhibition of human 786-0 cell growth in a cell viability assay.

A2058 = test system: A2058;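 further: reduction of A2058 cell growth, read out with a viability assay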
Description: SANGER: Inhibition of human A2058 cell growth in a cell viability assay.

A2780 = test system: A2780;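 further: growth inhibition of A2780 cells, read out with a cell viability assay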
Description: SANGER: Inhibition of human A2780 cell growth in a cell viability assay.

A-427 = test system: A-427;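 further: growth inhibition of human A-427 cells, read out by a cell viability assay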
Description: SANGER: Inhibition of human A427 cell growth in a cell viability assay.

ACHN = test system: ACHN;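 further: cell viability read-out used to gauge how strongly growth of human ACHN cells is suppressed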
Description: SANGER: Inhibition of human ACHN cell growth in a cell viability assay.

AGS = test system: AGS;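 further: growth inhibition of AGS cells, determined with a cell viability assay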
Description: SANGER: Inhibition of human AGS cell growth in a cell viability assay.

BCPAP = test system: BCPAP;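 further: growth inhibition of BCPAP cells, read out in a cell viability assay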
Description: SANGER: Inhibition of human BCPAP cell growth in a cell viability assay.

BEN = test system: BEN;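 further: growth inhibition of the BEN cell line, read out with a cell viability assay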
Description: SANGER: Inhibition of human BEN cell growth in a cell viability assay.

BT-20 = test system: BT-20;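 further: cell viability assay measuring suppression of growth in human BT-20 cells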
Description: SANGER: Inhibition of human BT-20 cell growth in a cell viability assay.

C-33-A = test system: C-33-A;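 further: cell viability assay measuring growth inhibition of C-33-A cells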
Description: SANGER: Inhibition of human C-33-A cell growth in a cell viability assay.

CAL-39 = test system: CAL-39;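 further: cell viability assay measuring growth inhibition of CAL-39 cells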
Description: SANGER: Inhibition of human CAL-39 cell growth in a cell viability assay.

U-118-MG = test system: U-118-MG
Description: SANGER: Inhibition of human U-118-MG cell growth in a cell viability assay.

UACC-893 = test system: UACC-893
Description: SANGER: Inhibition of human UACC-893 cell growth in a cell viability assay.

WM-115 = test system: WM-115
Description: SANGER: Inhibition of human WM-115 cell growth in a cell viability assay.

HCC2157 = test system: HCC2157;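 further: growth inhibition of the cancer cell line, read out as cell viability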
Description: SANGER: Inhibition of human HCC2157 cell growth in a cell viability assay.

Structure (SMILES): Cn1cc(/C=C2\C(=O)Nc3cccnc32)c2ccccc21
- IC50 (Ca9-22): > 2000 nM
- IC50 (DBTRG-05MG): > 2000 nM
- IC50 (DMS-273): > 2000 nM
- IC50 (DoTc2-4510): > 2000 nM
- IC50 (EGI-1): > 2000 nM
- IC50 (ESS-1): > 2000 nM
- IC50 (HCC1569): > 2000 nM
- IC50 (HCC 2998): > 2000 nM
- IC50 (HCC38): > 2000 nM
- IC50 (HLE): > 2000 nM
- IC50 (HMV-2 cell line): > 2000 nM
- IC50 (HSC-2): > 2000 nM
- IC50 (HSC-4): 1950 nM
- IC50 (Hs-578T): > 2000 nM
- IC50 (HuO9): > 2000 nM
- IC50 (MC-IXC): > 2000 nM
- IC50 (NB14): > 2000 nM
- IC50 (NCI-H1703): 299 nM
- IC50 (NCI-H2228): > 2000 nM
- IC50 (NCI-H2347): > 2000 nM
- IC50 (NCI-H2405): > 2000 nM
- IC50 (NCI-H28): > 2000 nM
- IC50 (NCI-H650): > 2000 nM
- IC50 (PFSK-1): > 2000 nM
- IC50 (SCC-25): > 2000 nM
- IC50 (SJRH30): > 2000 nM
- IC50 (SK-MEL-30): > 2000 nM
- IC50 (SW1990): > 2000 nM
- IC50 (SW48): > 2000 nM
- IC50 (SiHa): > 2000 nM
- IC50 (786-0): > 2000 nM
- IC50 (A2058): > 2000 nM
- IC50 (A2780): > 2000 nM
- IC50 (A-427): > 2000 nM
- IC50 (ACHN): > 2000 nM
- IC50 (AGS): > 2000 nM
- IC50 (BCPAP): > 2000 nM
- IC50 (BEN): > 2000 nM
- IC50 (BT-20): > 2000 nM
- IC50 (C-33-A): > 2000 nM
- IC50 (CAL-39): > 2000 nM
- IC50 (U-118-MG): > 2000 nM
- IC50 (UACC-893): > 2000 nM
- IC50 (WM-115): > 2000 nM

Structure (SMILES): C[C@]12O[C@H](C[C@]1(O)CO)n1c3ccccc3c3c4c(c5c6ccccc6n2c5c31)CNC4=O [LESTAURTINIB]
- IC50 (Ca9-22): 900 nM
- IC50 (DBTRG-05MG): > 2000 nM
- IC50 (DMS-273): > 2000 nM
- IC50 (DoTc2-4510): > 2000 nM
- IC50 (EGI-1): 572 nM
- IC50 (ESS-1): 682 nM
- IC50 (HCC1569): > 2000 nM
- IC50 (HCC 2998): 554 nM
- IC50 (HCC38): > 2000 nM
- IC50 (HLE): 1390 nM
- IC50 (HMV-2 cell line): 55.8 nM
- IC50 (HSC-2): 1500 nM
- IC50 (HSC-4): 203 nM
- IC50 (Hs-578T): 997 nM
- IC50 (HuO9): 561 nM
- IC50 (MC-IXC): 13.5 nM
- IC50 (NB14): 19.6 nM
- IC50 (NCI-H1703): 345 nM
- IC50 (NCI-H2228): > 2000 nM
- IC50 (NCI-H2347): > 2000 nM
- IC50 (NCI-H2405): 1820 nM
- IC50 (NCI-H28): 833 nM
- IC50 (NCI-H650): 677 nM
- IC50 (PFSK-1): > 2000 nM
- IC50 (SCC-25): 758 nM
- IC50 (SJRH30): 1890 nM
- IC50 (SK-MEL-30): 512 nM
- IC50 (SW1990): 1380 nM
- IC50 (SW48): 71.6 nM
- IC50 (SiHa): > 2000 nM
- IC50 (786-0): 1560 nM
- IC50 (A2058): 245 nM
- IC50 (A2780): 94 nM
- IC50 (A-427): 23.4 nM
- IC50 (ACHN): 104 nM
- IC50 (AGS): 69.1 nM
- IC50 (BCPAP): 970 nM
- IC50 (BEN): > 2000 nM
- IC50 (BT-20): 1650 nM
- IC50 (C-33-A): > 2000 nM
- IC50 (CAL-39): 481 nM
- IC50 (U-118-MG): > 2000 nM
- IC50 (UACC-893): > 2000 nM
- IC50 (WM-115): > 2000 nM

Structure (SMILES): O=c1cc(N2CCOCC2)oc2c(-c3cccc4c3sc3ccccc34)cccc12
- IC50 (Ca9-22): > 2000 nM
- IC50 (DBTRG-05MG): > 2000 nM
- IC50 (DMS-273): > 2000 nM
- IC50 (DoTc2-4510): > 2000 nM
- IC50 (EGI-1): > 2000 nM
- IC50 (ESS-1): > 2000 nM
- IC50 (HCC1569): > 2000 nM
- IC50 (HCC2157): > 2000 nM
- IC50 (HCC 2998): > 2000 nM
- IC50 (HCC38): > 2000 nM
- IC50 (HLE): > 2000 nM
- IC50 (HMV-2 cell line): > 2000 nM
- IC50 (HSC-2): > 2000 nM
- IC50 (Hs-578T): > 2000 nM
- IC50 (HuO9): > 2000 nM
- IC50 (MC-IXC): > 2000 nM
- IC50 (NB14): > 2000 nM
- IC50 (NCI-H1703): > 2000 nM
- IC50 (NCI-H2228): > 2000 nM
- IC50 (NCI-H2347): > 2000 nM
- IC50 (NCI-H2405): > 2000 nM
- IC50 (NCI-H28): > 2000 nM
- IC50 (NCI-H650): > 2000 nM
- IC50 (PFSK-1): > 2000 nM
- IC50 (SCC-25): > 2000 nM
- IC50 (SJRH30): > 2000 nM
- IC50 (SK-MEL-30): > 2000 nM
- IC50 (SW1990): > 2000 nM
- IC50 (SW48): > 2000 nM
- IC50 (SiHa): > 2000 nM
- IC50 (786-0): > 2000 nM
- IC50 (A2058): > 2000 nM
- IC50 (A2780): > 2000 nM
- IC50 (A-427): > 2000 nM
- IC50 (ACHN): > 2000 nM
- IC50 (AGS): > 2000 nM
- IC50 (BCPAP): > 2000 nM
- IC50 (BEN): > 2000 nM
- IC50 (BT-20): > 2000 nM
- IC50 (C-33-A): > 2000 nM
- IC50 (CAL-39): > 2000 nM
- IC50 (U-118-MG): > 2000 nM
- IC50 (UACC-893): > 2000 nM
- IC50 (WM-115): > 2000 nM
